Here are results for 1 compound from patent publication US20260318831A1 (University of Cincinnati, priority 2023, published 2026).

In this assay the test system is HeLa cells. The assay can be described thus: Photobleaching comparison of LTR and PyQPMe. Type of assay: cell-based. The following applies: 100% laser power, after 40 s of scans; % of original value. From the text:
FIGS. 4A-4G depict the characterization of imaging properties of PyQPMe-stained endolysosomes. FIG. 4A. Confocal image of PyQPMe-stained endolysosomes and fluorescence intensity profile (FIG. 4B) of the write line in FIG. 4A. FIG. 4C. Confocal image of PyQPMe-stained late endosomes/lysosomes and fluorescence intensity profile (FIG. 4D) of the write line in FIG. 4C. FIG. 4E. Confocal images of HeLa cells labeled with LTR and PyQPMe and 3D fluorescence intensity plots of rectangles of integration. FIG. 4F. Continuous imaging of HeLa cells labeled with LTR or PyQPMe at 100% laser intensity for photobleaching, and each scan time was 10 s, images were captured under a red channel. FIG. 4G. Normalized fluorescence intensity of LTR and PyQPMe in FIG. 4F.
Resistance to photobleaching is a crucial property of probes that determines whether they can be used for long-term fluorescence tracking. To characterize this property, a photobleaching comparison study between LTR and PyQPMe was done in HeLa cells (FIG. 4F).
Leica Stellaris 8 Confocal imaging. High-resolution images were acquired on a commercial Leica Stellaris 8 Confocal Microscope under LIGHTNING mode. Laser powers were set at 10% intensity for 405 nm and 640 nm channels. […] High-resolution images were captured from the randomly selected field of view and analyzed with Leica LAS X and ImageJ software. […] All PCC values were analyzed in the CellProfiler.

On to `CN1CCN(c2ccc(/C=C/c3ccc4cc(-c5ccncc5)ccc4[n+]3C)cc2)CC1` [PyQPMe, (E)-1-methyl-2-(4-(4-methylpiperazin-1-yl)styryl)-6-(pyridin-4-yl)quinolin-1-ium], for which the “fluorescence signal remaining after photobleaching” value came out at 22%.
